# Reference: publication PMC10937574, “Modification of 4-(4-chlorothiophen-2-yl)thiazol-2-amine derivatives for the treatment of analgesia and inflammation: synthesis and in vitro, in vivo, and in silico studies” (Frontiers in Pharmacology, 2024)
# Where “and” joins values, the source holds several entries; their conditions need not be identical. Equal values may be shown once. Read-outs that look alike come from different tables or passages of the source.
# How the values were obtained:
# [1] = test system: carrageenan-induced paw edema; assay: Carrageenan-induced paw edema; type: in vivo, albino mice
# [2] = test system: prostaglandin E2-induced paw edema; assay: Prostaglandin E2-induced paw edema; type: in vivo, mouse
# Description: It was done by injecting 10% DMSO, a Bradykinin inhibitor (HOE 140) at a dose of 1 mg/kg, a lipoxygenase inhibitor (montelukast) at a dose of 25 mg/kg, an antihistamine at a dose of 100 mg/kg, the tested compound at a dose of 100 mg/kg, or a cyclooxygenase inhibitor (celecoxib) at a dose of 50 mg/kg.
# [3] = test system: leukotriene-induced paw edema; assay: Leukotriene-induced paw edema; type: in vivo, mouse; conditions: for percentage inhibition of leukotriene-induced paw edema: 20 mg/kg
# Description: (§1) It was done by injecting 10% DMSO, a Bradykinin inhibitor (HOE 140) at a dose of 1 mg/kg, a lipoxygenase inhibitor (montelukast) at a dose of 25 mg/kg, an antihistamine at a dose of 100 mg/kg, […], or a cyclooxygenase inhibitor (celecoxib) at a dose of 50 mg/kg.
# 5-LOX enzyme = assay: 5-LOX activity (5-lipoxygenase inhibition, linoleic acid substrate, absorbance 234 nm); conditions: read-out: IC50 ± SEM 5-LOX
# [4] = test system: histamine-induced paw edema; assay: Histamine-induced paw edema; type: in vivo, mouse; conditions: 20 mg/kg, at 3 h
# [5] = test system: bradykinin-induced paw edema; assay: Bradykinin-induced paw edema; type: in vivo, mouse; conditions: 20 mg/kg, first hour
# Description: as §1
compound,measurement,setting,value
"CC(=O)Oc1ccccc1C(=O)O [Aspirin, reference compound]",Percent inhibition of paw edema,"[1]; dose 50 mg/kg, 1 h",48.52 ± 1.12 %
same,Percent inhibition of paw edema,"[1]; dose 50 mg/kg, 2 h",54.63 ± 1.47 %
same,Percent inhibition of paw edema,"[1]; dose 50 mg/kg, 3 h",55.22 ± 1.38 %
same,Percent inhibition of paw edema,"[1]; dose 50 mg/kg, 4 h",58.92 ± 1.95 %
same,Percent inhibition of paw edema,"[1]; dose 50 mg/kg, 5 h",59.60 ± 1.52 %
same,Percent inhibition of paw edema,"[1]; dose 50 mg/kg, 5 h, listed as aspirin",59.60%
"Cc1ccc(-c2cc(C(F)(F)F)nn2-c2ccc(S(N)(=O)=O)cc2)cc1 [Celecoxib, reference compound]",reduction of prostaglandin E2-induced paw edema,"[2]; celecoxib 50 mg/kg, 4th hour after inflammogen",88%
"CC(C)(O)c1ccccc1CC[C@@H](SCC1(CC(=O)O)CC1)c1cccc(/C=C/c2ccc3ccc(Cl)cc3n2)c1 [montelukast, reference compound]",percentage reduction of leukotriene-induced paw edema,"[3]; montelukast 25 mg/kg, fourth hour",72.79 ± 1.10%
C#CCNc1nc(-c2cc(Cl)cs2)c(Nc2ccccc2)s1 [Compound 5g],IC50,5-LOX enzyme,83.11 ± 0.16 µM
Nc1nc(-c2cc(Cl)cs2)c(N2CCNCC2)s1 [Compound 5a],IC50,5-LOX enzyme,93.15 ± 0.07 µM
CCNc1nc(-c2cc(Cl)cs2)c(Nc2ccccc2)s1 [Compound 5f],IC50,5-LOX enzyme,56.21 ± 0.15 µM
CCNc1nc(-c2cc(Cl)cs2)c(N2CCNCC2)s1 [Compound 5b],IC50,5-LOX enzyme,98.26 ± 0.08 µM
CCNc1nc(-c2cc(Cl)cs2)c(N2CCN(C)CC2)s1 [Compound 5c],IC50,5-LOX enzyme,72.32 ± 0.11 µM
Clc1csc(-c2nc(NCc3ccccc3)sc2Nc2ccccc2)c1 [Compound 5e],Percent inhibition of paw edema,"[1]; dose 5 mg/kg, 1 h",47.70 ± 1.68 %
same,Percent inhibition of paw edema,"[1]; dose 5 mg/kg, 2 h",51.47 ± 1.50 %
same,Percent inhibition of paw edema,"[1]; dose 5 mg/kg, 3 h",54.56 ± 1.34 %
same,Percent inhibition of paw edema,"[1]; dose 5 mg/kg, 4 h",53.35 ± 1.47 %
same,Percent inhibition of paw edema,"[1]; dose 5 mg/kg, 5 h",56.25 ± 1.65 %
same,Percent inhibition of paw edema,"[1]; dose 10 mg/kg, 1 h",52.36 ± 2.26 %
same,Percent inhibition of paw edema,"[1]; dose 10 mg/kg, 2 h",54.58 ± 2.58 %
same,Percent inhibition of paw edema,"[1]; dose 10 mg/kg, 3 h",57.59 ± 1.59 %
same,Percent inhibition of paw edema,"[1]; dose 10 mg/kg, 4 h",56.78 ± 2.66 %
same,Percent inhibition of paw edema,"[1]; dose 10 mg/kg, 5 h",62.65 ± 2.79 %
same,Percent inhibition of paw edema,"[1]; dose 20 mg/kg, 1 h",55.29% and 55.29 ± 1.04 %
same,Percent inhibition of paw edema,"[1]; dose 20 mg/kg, 2 h",57.39 ± 1.69 %
same,Percent inhibition of paw edema,"[1]; dose 20 mg/kg, 3 h",60.76 ± 2.68 %
same,Percent inhibition of paw edema,"[1]; dose 20 mg/kg, 4 h",59.08 ± 1.98 %
same,Percent inhibition of paw edema,"[1]; dose 20 mg/kg, 5 h",64.59% and 64.59 ± 1.49 %
same,antihistaminic effect (suppression of histamine-induced paw edema),[4],35%
same,inhibition of bradykinin-induced paw swelling,[5],21.30%
same,percentage inhibition of leukotriene-induced paw edema,[3]; fourth hour,69.84%
same,IC50,5-LOX enzyme; listed as C00005,38.45 ± 0.2 µM
CN1CCN(c2sc(NCc3ccccc3)nc2-c2cc(Cl)cs2)CC1 [Compound 5d],Percent inhibition of paw edema,"[1]; dose 5 mg/kg, 1 h",45.47 ± 1.11%
same,Percent inhibition of paw edema,"[1]; dose 5 mg/kg, 2 h",48.10 ± 1.42 %
same,Percent inhibition of paw edema,"[1]; dose 10 mg/kg, 1 h",49.68 ± 1.44%
same,Percent inhibition of paw edema,"[1]; dose 20 mg/kg, 5 h",61.64 ± 1.10%
same,antihistaminic effect (suppression of histamine-induced paw edema),[4],27.12%
same,inhibition of bradykinin-induced paw swelling,[5],9.20%
same,inhibition of prostaglandin E2-induced paw edema,"[2]; 20 mg/kg, fourth hour",76.56 ± 0.58
same,percentage inhibition of leukotriene-induced paw edema,[3]; fifth hour (fifth of five values),59.90 ± 0.68%
same,percentage inhibition of leukotriene-induced paw edema,[3]; first hour (first of five values),51.80 ± 0.58%
same,percentage inhibition of leukotriene-induced paw edema,[3]; fourth hour,64.56 ± 0.78%
same,percentage inhibition of leukotriene-induced paw edema,[3]; second hour (second of five values),55.90 ± 0.66%
same,percentage inhibition of leukotriene-induced paw edema,[3]; third hour (third of five values),59.46 ± 0.52%
same,IC50,5-LOX enzyme,23.08 ± 0.18 µM
